The text below walks through data of article PMC6572996, “Silver(I) Complexes of the Pharmaceutical Agents Metronidazole and 4-Hydroxymethylpyridine: Comparison of Cytotoxic Profile for Potential Clinical Application” (Molecules, 2019).

Series [1] can be described thus: Cytotoxicity over four assays in both cell lines. In kind it is cell-based. As to conditions: mouse (Balb/c 3T3) and human (HepG2), Balb/c 3T3 clone A31 fibroblasts and HepG2 hepatoma cells, mostly greater than 50%, read-out: Viability of the cells at the highest concentrations used. The procedure: Data obtained from the measurement of the optical density in these assays were transformed to percentages in relation to the control group, considered to be 100% for the MTT, NRU, and TPC assays and 0% for the LDH assay (Figure 1).
The human hepatoma cell line (HepG2) was purchased from the American Type Culture Collection (ATCC HB-8065). These cells were cultured in Minimum Essential Medium Eagle (MEME) (ATCC). The murine fibroblast cell line (Balb/c 3T3 clone A31) (gift from Department of Swine Diseases of the National Veterinary Research Institute in Pulawy) was cultured in Dulbecco’s Modified Eagle’s Medium (DMEM) (ATCC). The media were supplemented with 10% BCS (Balb/c 3T3), 10% FBS (HepG2), 1% L-glutamine, and 1% antibiotic solution. The cells were maintained in 75 cm^2 cell culture flasks (Nunc, Roskilde, Denmark) in a humidified incubator, NuAire (Plymouth, MN, USA) at 37 °C, in an atmosphere of 5% CO2. The medium was refreshed every two or three days and the cells were trypsinized by 0.25% trypsin–0.02% EDTA after reaching 70–80% confluence. […]
The concentration ranges of compounds were chosen according to their solubility and their plasma level. […] Cytotoxicity was assessed after 72 h of exposure of the cells to the compounds. […]
The results of the tests were expressed as a mean ± SD. […] The IC50 values were calculated by GraphPad Prism 5 software (San Diego, CA, USA). […]

The test system of a further series is 10T1/2 cell line. Set-up: method as in PMID 26828469. As to conditions: same observation as in this study; cited from earlier work.
The next series concerns HepG2 cells. Set-up: method as in doi:10.2478/v10213-012-0102-5. As to conditions: cited from earlier work.
Another series concerns FaO cells. Details: method as in doi:10.2478/v10213-012-0102-5. The settings on record: cited from earlier work.
The subject of a further series is human fibroblasts (FMM1). Set-up: method as in PMID 20857004. The settings on record: 50 µg/mL, 72 h treatment; cited from earlier work.
The subject of the next series is MCF7 cells. Set-up: method as in PMID 22832309. The settings on record: 48 h incubation, cited from earlier work.
The subject of the next series is IEC-6 cells. Set-up: method as in PMID 20946968. The settings on record: 84.8 µM, 24 h exposure; cited from earlier work.
The test system of series [2] is OVCAR-3 (ovarian) cell line. Details: method as in PMID 18615197. As to conditions: 72 h; cited from earlier work.
The next series deals with MB157 (breast) cell line. Set-up: method as in PMID 18615197. As to conditions: 72 h; cited from earlier work.
Series [3] concerns HeLa (cervical) cell line. Set-up: method as in PMID 18615197. The settings on record: 72 h; cited from earlier work.
The next series deals with A549 (lung) cells. As to conditions: 72 h exposure; cited from earlier work.
Another series has as its system NIH/3T3 cells. The settings on record: 24 h exposure; cited from earlier work.
Series [4] deals with murine fibroblasts (L929). Details: method as in PMID 18364400. As to conditions: 24 h exposure; read-out: IC50, L929, MTT assay; cited from earlier work.
Series [5] deals with murine fibroblasts (L929). Set-up: method as in PMID 18364400. As to conditions: 24 h exposure; read-out: IC50, L929, NRU assay; cited from earlier work.

pIC50: −log10 of the molar value. Like-named read-outs stand apart in the source and are kept apart here.

With `Cc1ncc([N+](=O)[O-])n1CCO` [Metronidazole], the viability at 72 h in [1] is more than 50%. Besides, in the series with 10T1/2 cell line, the “Cytotoxicity in 10T1/2 cell line” value was “poorly cytotoxic”. The “Cytotoxicity in HepG2 cells” value in the series with HepG2 cells was “low cytotoxicity”. In addition, the “Cytotoxicity in FaO cells” value in the series on FaO cells is given as “low cytotoxicity”. Moreover, the “Decrease of viability of human fibroblasts (FMM1)” value with human fibroblasts (FMM1) is 40%. The “Inhibition of MCF7 cells” value in the series on MCF7 cells (250 µM) is recorded as 30%. In the series with MCF7 cells (concentration range 2.5 to 250 µM), the “Cytotoxicity in MCF7 cells” value is given as “not cytotoxic”. Also, the “Inhibition of viability of IEC-6 cells” value with IEC-6 cells is reported as 8%.

Regarding `O=[N+]([O-])[O-].[Ag+]` [Silver nitrate], the pIC50 in series [2] is 4.46; with MB157 (breast) cell line, 5.30; in [3] it was 4.30; in the series on A549 (lung) cells, 4.87; in the series on NIH/3T3 cells, 4.91; in series [4], 5.45. Further, the pIC50 in series [5] is 5.59.
